The values below come from patent US20150299764A1, “IMMOBILISED CYCLIN-DEPENDENT KINASE 4 FUSION PROTEINS AND USES THEREOF” (UNIVERSITE LIBRE DE BRUXELLES, priority 2012, published 2015).

One assay concerns MCF7 cells. Kind of assay: BrdU incorporation (DNA synthesis) in quiescent MCF7 cells. In kind it is cell-based. As to conditions: fulvestrant 10 nM during the last 24 h of the incubation without serum and insulin, results not shown. As for the experimental part:
MCF7 cells (ATCC HTB-22) were routinely cultivated in Dulbecco's Modified Eagle Medium (DMEM) comprising 5% serum, 6 ng/ml insulin, 0.1 mM non essential amino acids (NEAA, GIBCO), 1 mM Sodium pyruvate, 50 U/ml Penicillin and 50 μg/ml Streptomycin. The cells were rendered quiescent by incubating them for three days in phenol-free DMEM without serum and insulin, but supplemented with 0.1 mM NEAA (GIBCO), 1 mM Sodium pyruvate, 50 U/ml Penicillin and 50 μg/ml Streptomycin. Cells were kept quiescent (control) or were stimulated to proliferate by adding 5% serum and 6 ng/ml insulin in the culture medium. Samples were harvested 2 h, 4 h, 6 h, 8 h, 10 h, 12 h, 16 h, and 24 h after stimulation of MCF7 cells. Bromodeoxyuridine (BrdU, 10^−4 M) and fluorodeoxyuridine (2.10^−6 M) were added to the cells for the last 24 h of culture. BrdU staining was used to record DNA synthesis. […] DNA synthesis resumed 16 h after stimulation by serum and insulin (FIG. 5, dashed line).
When fulvestrant (10 nM) was added to the culture to block estrogen receptor action during the last 24 h of the incubation without serum and insulin, the proportion of cells starting DNA synthesis dropped to less than 2% (results not shown).
Background: Dividing cells build labelled thymidine or BrdU into new DNA.

In assay [1] the target is biotinylated Avi-tagged luciferase/EGFP fusion (pWFAvi_IBc_luc) [luciferase: P08659]. Put plainly: pull-down from HEK293T extract on streptavidin-coated sepharose beads; bound luciferase activity relative to bound plus unbound.

Turning to `C[C@]12CC[C@@H]3c4ccc(O)cc4C[C@@H](CCCCCCCCC[S+]([O-])CCCC(F)(F)C(F)(F)F)[C@H]3[C@@H]1CC[C@@H]2O` (some centres unmarked) [fulvestrant], the “proportion of cells starting DNA synthesis” value in the assay with MCF7 cells is “less than 2%”.

For “streptavidin (from UniProt P22629 37-163)”, in assay [1], the percent of the total luciferase activity bound is under 40%.
